This is an account of results in paper PMC12610161, “Structural Engineering of Tyrosine-Based Neuroprotective Peptides: A New Strategy for Efficient Blood–Brain Barrier Penetration” (Foods, 2025).

Series [1] is described as follows: Transwell in vitro BBB model, apparent permeability. The class given is in vitro ADME. Particulars: mouse, 100 µM in upper chamber, bEnd.3 monolayer, RP-HPLC of lower chamber. Here is the method:
The method described by Han et al. was referenced and modified. Briefly, 500 µL of bEnd.3 cells at a density of 5 × 10^4 cells/mL were seeded in the upper chamber of Transwell (0.4 µm, 12-well, PET material), and 1.5 mL of DMEM was added to the lower chamber to ensure the upper and lower chambers were aligned. After cell adherence, the culture medium in the upper chamber was changed daily, while the culture medium in the lower chamber was changed every other day. Once the transendothelial electrical resistance (TEER) was > 200 Ω·cm^2, both the upper and lower chambers were replaced with serum-free DMEM. After 12 h, EV and TW peptides, solubilized in HBSS at a concentration of 100 µM, were added to the upper chamber. After 4 h, the samples were collected separately, and RP-HPLC detection, along with Origin 2021 mapping analysis, was performed. TEER and apparent permeability coefficient (Papp) were calculated as follows:TEER = (TEERsample − TEERcontrol) × Cell Culture Area(5) (6) Papp=∆C·V/∆t·C0·A(cm/s) where ΔC represents the concentration in the lower chamber (µM), V is the volume of the lower chamber (mL), Δt indicates the experimental time (s), C0 is the initial concentration in the upper chamber, and A is the membrane area of the Transwell (cm^2).

Series [2] can be described thus: DPPH radical scavenging activity. Particulars: substrate concentration 1 mg/mL (printed for EV peptides); 30 min, 517 nm. The protocol:
A modified DPPH scavenging assay was conducted following the method described by Shen et al.. 0.0023 g of DPPH was mixed with 100 mL of 95% absolute ethanol to prepare a 60 µmol/L DPPH radical working solution. The sample was then mixed with 60 µmol/L DPPH free radical working solution at a 1:1 (v/v) ratio, mixed thoroughly, and allowed to stand in the dark for 30 min. The mixture was then centrifuged at 4500 rpm for 10 min. The absorbance was measured at a wavelength of 517 nm and compared with an equivalent concentration of GSH. The DPPH radical scavenging rate was calculated using the following formula:(1) DPPH radical scavenging ratio % = 1−Aa−Ab/Ac×100% where Aa represents the absorbance value of EV, TW and YV peptides solution added to DPPH scavenging radical working solution; Ab denotes the absorbance value of the solution with 95% (v/v) absolute ethanol and the […] scavenging radical working solution; Ac is the absorbance value after mixing distilled water and DPPH in equal volumes of 1:1.
For orientation: The DPPH test is a chemical assay of radical scavenging.

Series [3] can be described thus: ABTS radical scavenging activity. Particulars: 1 mg/mL; 6 min, 734 nm. Here is the method:
ABTS scavenging radical determination was conducted following the procedure of Li et al. with slight modifications. A 7 mmol/L aqueous solution of ABTS and a 2.49 mmol/L aqueous solution of potassium persulfate were mixed in a 1:1 ratio. The mixture was allowed to stand in the dark at 4 °C for 12–16 h. The concentration was adjusted using 5 mmol/L PBS (pH 7.4) to ensure that the absorbance of the ABTS radical stock solution was 0.700 ± 0.002 at a wavelength of 734 nm. EV and TW peptide aqueous solutions (10 µL), each at a concentration of 1 mg/mL, were taken. A glutathione aqueous solution with the same substrate concentration was used as the control group. After adding the samples to a black 96-well plate, 190 µL of ABTS free radical working solution was added to each well. The absorbance at 734 nm was measured using a microplate reader after a 6 min reaction.
The ABTS clearance was calculated as follows:(2) ABTS radical scavenging rate % = 1−Aa−Ab/Ac×100% where Aa represents the sample; Ab represents the absorbance of the solution in which the ABTS working solution was substituted with 5 mmol/L PBS; Ac represents the absorbance of the blank group.

Series [4] is described as follows: Oxygen radical absorbance capacity (ORAC) assay. The conditions noted are these: substrate concentration 1 mg/mL (printed for EV peptides). The protocol: ORAC assay was performed based on the technique of Simon et al., with minor modifications. First, in black 96-well plates, 25 µL of PBS buffer (75 mmol/L, pH 7.4), 25 µL of Trolox standard solutions (at concentrations of 6.25 µM, 12.5 µM, 25 µM, 50 µM), and the peptide solution were added at a 1:1 volume ratio. Then, the samples were incubated at 37 °C for 10 min. Subsequently, 150 µL of […] sodium fluorescein was added to all wells and incubated at 37 °C for 20 min. Following this, 25 µL of 6 mmol/L azobisisobutyramidine hydrochloride (AAPH) solution was quickly added to each well. Two control groups were established: one consisted of a black 96-well plate with free radicals (+AAPH), while the other group included a black 96-well plate without free radicals (−AAPH). Both plates were placed in a microplate reader and shaken for 5 s. The excitation wavelength was set to 485 ± 20 nm, and the emission wavelength was set to 530 ± 10 nm. The entire system was set at 37 °C, and the fluorescence intensity was measured every 2 min. […]
The measurement results were expressed as ORAC values using the following formula:ORAC value = [(AUCpeptide − AUCblank)/(AUtrolox − AUCblank)] × Ctrolox/Cpeptide(4) […]

On the set-up of series [5]: method as in PMID 22934681. Particulars: cited from earlier work.
For series [6], the system named is in vitro BBB model. Particulars: cited from earlier work.
Series [7] relates to HT22 cells. It counts as cell-based. The conditions noted are these: mouse, 24 h, 100 µM. The protocol:
Mouse brain microvascular endothelial cells (bEnd.3) and mouse hippocampal neuron cells (HT22) were purchased from Zhong Qiao Xin Zhou Biological Technology Ltd. (Shanghai, China). Cells were cultured in DMEM (Cat # 11965092, Gibco, New York, USA) supplemented with 1% (v/v) penicillin/streptomycin (MA0110, MeilunBio, Dalian, China) and 10% (v/v) fetal bovine serum (C04001-500, Vivacell, Shanghai, China) in a 5% CO2 humidified incubator at 37 °C, and passaged every 2 days. When cell confluence reached 85–90%, cells were seeded into 6/12 well plates at a density of 1 × 10^5 cells/mL. Once the confluence reached 85–90% again, the cells were cultured in H2O2 medium at varying concentrations for 2 h as a model group. Cell viability was assessed using MTT at 0.1 mg/mL, and the optimal H2O2 concentration was determined when the cell viability approached 50%.
When cell confluence reached 80–90%, they were incubated with 100 µM EV peptides and TW peptides, respectively, for 24 h, followed by injury with 800 µM H2O2 for 2 h to observe the protective effect of the peptides. Among them, the model group was directly injured after 24 h of incubation with DMEM.

A short description of series [8]: in vivo. The conditions noted are these: C57/BJ, mouse, po.
Method: Six C57/BJ mice were randomly selected, and the peptides [sequence] and [sequence] were administered via gavage, respectively. After 10 h, the mice were euthanized by cervical dislocation, and the brains were harvested. For analysis, 3 mL of normal saline was added to each gram of brain tissue, which was then homogenized. The sample was diluted in a ratio of 1:3 with methanol solution, mixed thoroughly, and centrifuged at 12,000 rpm for 10 min. The resulting supernatant was collected for RP-HPLC analysis.
(§1) Gradient elution was conducted with a mobile phase consisting of pure water with 0.1% TFA (mobile phase A) and acetonitrile containing 0.1% TFA (mobile phase B). […] This was performed for 25 min at a flow rate of 1 mL/min.
Series [9] is described as follows: in vitro.
Method: Walnut peptides were dissolved in distilled water to prepare a 100 µM aqueous solution. The pH was adjusted to 2.0, and pepsin was added to simulate gastric juice digestion. After 1 and 2 h in a 37 °C water bath, 1 mL of the sample was taken and stored at 4 °C for subsequent use. The pH of the remaining solution was then adjusted to 7.0, and 5 mg/mL trypsin was added to simulate intestinal digestion. After 1 and 2 h in a 37 °C water bath, 1 mL samples were taken, filtered through a 0.22 µm pore size membrane, and analyzed via RP-HPLC.
as §1
A short description of series [10]: in vitro. Particulars: KM, mouse, plasma; for half-life at 166.7 µM: In vitro plasma half-life.
Method: The plasma half-life was evaluated utilizing KM mice (20 ± 2 g) obtained from Changsheng Biotechnology Co., Ltd. (Benxi, Liaoning, China). After the adaptation period, the mice were euthanized by cervical dislocation. Blood was collected from the heart and immediately transferred into an EP tube containing heparin sodium. After standing for 2 h, the plasma was separated by centrifugation at 4500 rpm at 4 °C for 15 min. A 500 µL aliquot of 500 µM peptide solution was added to 1 mL of blank plasma, mixed thoroughly by vortexing, and methanol was added in a 1:3 ratio. After vortexing for 1 min, the mixture was centrifuged at 12,000 rpm for 10 min, and the resulting supernatant was collected for RP-HPLC analysis.
Gradient elution was conducted with a mobile phase consisting of pure water with 0.1% TFA (mobile phase A) and acetonitrile containing 0.1% TFA (mobile phase B). The elution process for mobile phase B was as follows: [sequence]: 10−35%, [sequence]: 8−33%, [sequence]: 5−30%, [sequence]: 4−29%, TWLPLPR: 24−49%, TWLPYPR: 21−46%, TWLPRPR: 16−41%, TWLPKPR: 15−40%, YVPFPLP, YVPFPYP: 11–34%. This was performed for 25 min at a flow rate of 1 mL/min.
Details of series [11]: method as in PMID 29463072. Particulars: cited from earlier work.

“And” between values parts separate entries of the source, which are not always exact repeats. Identical values can stand only once. Like-named read-outs stand apart in the source and are kept apart here. Ends that are not written are not given here. Where only a bound is given, the exact number is not on record here.

In the case of EVSGPGKSPN [EVSGPGKSPN], the Papp A→B (commonly how fast a substance crosses the layer from the apical side) at 4 h, 100 µM in series [1] was 1.36 ×10⁻⁶ cm/s.

YVPFPLP [YVPFPLP]: the Papp A→B at 4 h, 100 µM in [1] came out at 0.999 ×10⁻⁶ cm/s.

For the compound TWLPKPR [TWLPKPR], the Papp A→B at 4 h, 100 µM in series [1] was determined as 3.45 ×10⁻⁶ cm/s.

On to `N[C@@H](CCC(=O)N[C@@H](CS)C(=O)NCC(=O)O)C(=O)O` [GSH, glutathione], for which the “DPPH radical scavenging rate” value in series [2] is 70.98 ± 1.09% and 70 ± 1.09%. Further, the “ABTS radical scavenging rate” value in series [3] is 73.20 ± 2.54%. Also, the ORAC value in series [4] was 1003.3 ± 18.6 µmol TE/g.

Take H-Tyr-D-Ala-Gly-MePhe-Gly-ol: the Plasma half-life in [5] (embedded and delivered with GSH-PEG liposomes) is 6.9 ± 2.3 h; in [5] (free peptide), 0.153 ± 0.035 h.

With Gly-Sar, in [6], the Apparent permeability is 7.60 ± 1.29 µL/g/min.

As for EVSGPGYSPN [EVSGPGYSPN], the Papp (in general, the rate of passage across a membrane or cell layer, normalised by area and donor concentration) at 4 h, 100 µM in series [1] worked out at 8.1 ×10⁻⁶ cm/s. Moreover, in series [7], the “Cell viability (MTT)” value turned out to be 86.88 ± 3.18%. The tissue level at time at 10 h in series [8] stood at 1250 ± 910 ng/g. Moreover, in series [9], the recovery at 100 µM is 13.99 ± 0.02%. In series [10], the fraction remaining – broadly, the share of the starting amount still present when the sample was taken – at 1 h, 167 µM came out at 96.64 ± 0.53%; the amount remaining at 2 h, 167 µM stood at 92.42 ± 0.74%; the amount remaining at 4 h, 167 µM amounted to 80.5 ± 0.65%; the share remaining at 8 h, 167 µM turned out to be 58.64 ± 0.52%. Moreover, in series [10], the amount remaining at 12 h, 167 µM worked out at 51 ± 0.64%; the fraction remaining at 24 h, 167 µM turned out to be 24.3 ± 1.94%; the amount remaining at 36 h, 167 µM was 0%; the amount remaining at 48 h, 167 µM was found to be 0%. For the same compound, the half-life (usually the time needed for the level to fall by half in the phase considered) at 166.7 µM in series [10] is > 12 h.

As for TWLPLPR [TWLPLPR], the Papp A→B at 4 h, 100 µM in [1] was determined as 6.85 ×10⁻⁶ cm/s.

With eveltivir, the “Maximum concentration in the brain” value in series [11] is 46.5 ± 3.5 ng/g.

On to YVPFPYP [YVPFPYP], for which, in series [1], the Papp at 4 h, 100 µM was 3.62 ×10⁻⁶ cm/s.

For the compound TWLPYPR [TWLPYPR], the Papp A→B at 4 h, 100 µM in series [1] was found to be 7.06 ×10⁻⁶ cm/s.

Take EVSGPGLSPN [EVSGPGLSPN]: in series [1], the Papp at 4 h, 100 µM was 3.78 ×10⁻⁶ cm/s. In addition, the “Cell viability (MTT)” value in series [7] was 78.63 ± 0.86%. The compound also returned a tissue level at time at 10 h in series [8] of 250 ± 110 ng/g. In addition, the recovery at 100 µM in [9] was found to be 19.5 ± 3.33%. In series [10], this compound returned a metabolised at 48 h, 167 µM of 2.23%; an amount remaining at 1 h, 167 µM of 99.75 ± 0.35%; an amount remaining at 2 h, 167 µM of 99 ± 0.75%; a fraction remaining at 4 h, 167 µM of 98.13 ± 0.06%. In series [10], this compound registered an amount remaining at 8 h, 167 µM of 97.86 ± 0.49%; a share remaining at 12 h, 167 µM of 96.86 ± 0.5%; a fraction remaining at 24 h, 167 µM of 95.62 ± 0.64%; an amount remaining at 36 h, 167 µM of 94.96 ± 0.36%. In [10], the share remaining at 48 h, 167 µM was 94.77 ± 0.64% and the half-life at 166.7 µM is > 48 h.
